This is an account of results in patent publication US20050289668A1, “Plants with increased levels of one or more amino acids” (priority 2003, published 2005).

For experiment [1], the target named is T1, E. coli threonine deaminase (ilvA) variant L447F (ilvA219), SEQ ID NO: 3 (Escherichia coli, UniProt P04968, A120R/A140R/G195C/G334V/L447F/V121L).
T1 construct: made in house; host or cells: E. coli (crude extract)
T1 sequence (P04968 1-514 A120R/V121L/A140R/G195C/G334V/L447F): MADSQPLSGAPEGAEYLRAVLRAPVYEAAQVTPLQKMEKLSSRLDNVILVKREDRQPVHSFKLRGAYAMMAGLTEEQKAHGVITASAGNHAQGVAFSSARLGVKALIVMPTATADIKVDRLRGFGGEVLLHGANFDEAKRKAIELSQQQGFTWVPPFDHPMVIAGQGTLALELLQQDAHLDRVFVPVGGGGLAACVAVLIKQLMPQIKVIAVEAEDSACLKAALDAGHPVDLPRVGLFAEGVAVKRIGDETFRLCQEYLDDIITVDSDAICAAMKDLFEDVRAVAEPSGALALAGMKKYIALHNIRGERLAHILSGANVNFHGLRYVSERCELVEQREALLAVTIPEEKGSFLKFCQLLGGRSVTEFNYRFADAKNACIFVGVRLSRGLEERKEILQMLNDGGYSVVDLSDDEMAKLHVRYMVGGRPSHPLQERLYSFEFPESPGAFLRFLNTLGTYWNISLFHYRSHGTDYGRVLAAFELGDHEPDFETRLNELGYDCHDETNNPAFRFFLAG
Briefly: Threonine deaminase steady state kinetics, L447F (ilvA219). The class given is biochemical.

Experiment [2] deals with T2, E. coli threonine deaminase (ilvA) variant L481T, SEQ ID NO: 8 (Escherichia coli, UniProt P04968, A120R/A140R/G195C/G334V/L481T/V121L).
T2 construct: made in house; host or cells: E. coli (pSE380, crude extract)
Briefly: Threonine deaminase steady state kinetics, L481T. It counts as biochemical. How it is done: (§1) Before conducting further transformation experiments using the isolated ilvA alleles in transgenic plants, each allele was over-expressed in E. coli to determine its kinetic parameters. Kinetics data on threonine deaminases containing various mutations, and a comparison to data available for threonine deaminases from Arabidopsis, are provided in Table 4. The E. coli ilvA481 variants were subcloned into pSE380 (Invitrogen, Carlsbad, Calif.) and expression was induced with 0.2 mM IPTG at 37° C. for 3 hours. Expression of the E. coli alleles was high and fairly consistent as visualized by SDS-PAGE.
The effects of amino acid substitutions at Leu481 in ilvA were assessed by steady state kinetic analysis in the presence and absence of L-isoleucine. Threonine deaminase polypeptides for use in in vitro kinetics studies were extracted from E. coli cells in assay buffer containing 50 mM potassium phosphate (pH7.5), 1 mM dithiothreitol (DTT), and 0.5 mM ethylenediamine-tetraacetate. A continuous assay method was employed to monitor the formation of α-ketobutyrate directly at 230 nm (ε230 (pH7.5)=540 M^−1cm^−1 whereas threonine absorption was negligible (˜1%)). […] The kinetic parameters were determined by fitting the data points to the equations using GraFit 4.0 software (Erithacus Software, Surrey, UK). […]

Experiment [3] concerns the target Arabidopsis threonine deaminase, mutant OMR1 (polynucleotide SEQ ID NO: 22). The following applies: mutant Arabidopsis (OMR1) TD, comparison data, cited from earlier work.
Experiment [4] has as its target T3, E. coli threonine deaminase (ilvA) variant L481Y, SEQ ID NO: 5 (Escherichia coli, UniProt P04968, A120R/A140R/G195C/G334V/L481Y/V121L).
T3 construct: made in house; host or cells: E. coli (pSE380, crude extract)
T3 sequence (P04968 1-514 A120R/V121L/A140R/G195C/G334V/L481Y): T1 sequence (P04968 1-514 A120R/V121L/A140R/G195C/G334V/L447F) with F447L, L481Y
Briefly: Threonine deaminase steady state kinetics, L481Y. The class given is biochemical. How it is done: as §1
The effects of amino acid substitutions at Leu481 in ilvA were assessed by steady state kinetic analysis in the presence and absence of L-isoleucine. Threonine deaminase polypeptides for use in in vitro kinetics studies were extracted from E. coli cells in assay buffer containing 50 mM potassium phosphate (pH7.5), 1 mM dithiothreitol (DTT), and 0.5 mM ethylenediamine-tetraacetate. A continuous assay method was employed to monitor the formation of α-ketobutyrate directly at 230 nm (ε230 (pH7.5)=540 M^−1cm^−1 whereas threonine absorption was negligible (˜1%)). The assay was initiated by adding 20 μl of crude extract diluted 1:20 v/v to the assay vessel containing L-threonine (between 2.5 mM and 50 mM) in a final volume of 1 mL. For L-isoleucine inhibition, L-isoleucine was added between 0 mM and 20 mM. The kinetic parameters were determined by fitting the data points to the equations using GraFit 4.0 software (Erithacus Software, Surrey, UK). For comparison, the kcat values of L481 alleles were normalized to the kcat value for the wild type IlvA enzyme. Enzymes represented in FIG. 7 are: wild type E. coli threonine deaminase (circles), L481Y TD enzyme (diamonds), L481F TD enzyme (triangles), and the L481T TD enzyme (squares). Table 4 also summarizes the kinetic parameters of the variant threonine deaminase enzymes produced by the various E. coli ilvA alleles.

Molecules are shown by their SMILES. Residue numbers refer to the chain shown, from its start.

T2 sequence (P04968 whole entry A120R/V121L/A140R/G195C/G334V/L481T): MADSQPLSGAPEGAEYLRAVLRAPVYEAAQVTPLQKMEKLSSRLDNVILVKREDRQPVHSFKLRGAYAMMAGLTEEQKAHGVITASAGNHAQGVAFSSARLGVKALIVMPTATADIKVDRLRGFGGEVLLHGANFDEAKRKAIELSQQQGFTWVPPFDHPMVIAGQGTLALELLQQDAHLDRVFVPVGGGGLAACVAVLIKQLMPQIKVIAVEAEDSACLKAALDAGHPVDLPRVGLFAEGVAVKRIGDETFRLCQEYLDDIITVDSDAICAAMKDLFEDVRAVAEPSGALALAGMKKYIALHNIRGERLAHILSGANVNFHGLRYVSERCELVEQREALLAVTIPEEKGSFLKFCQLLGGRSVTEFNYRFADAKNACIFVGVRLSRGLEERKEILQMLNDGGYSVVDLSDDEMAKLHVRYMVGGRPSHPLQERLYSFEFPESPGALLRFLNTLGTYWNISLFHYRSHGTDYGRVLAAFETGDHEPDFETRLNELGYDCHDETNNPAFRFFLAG

For the molecule `CC[C@H](C)[C@H](N)C(=O)O` [L-isoleucine], the IC50 is greater than 20000 µM in experiment [1], 449 µM in experiment [2], 500 µM in experiment [3] and 1600 µM in experiment [4].
Turning to `C[C@@H](O)[C@H](N)C(=O)O` [L-threonine], the “Hill coefficient (n), substrate binding” value amounted to 0.5 in experiment [1] (L447F, pMON25859, negative cooperativity) and 1.1 in experiment [4] (L481Y, pMON25868, degree of cooperativity). Further, the Km in experiment [1] (read-out: Km^Thr, L447F, pMON25859, pH 7.5, L-threonine 2.5-50 mM) is 1700 µM; in experiment [2] (read-out: Km^Thr, L481T, pMON25866, pH 7.5, L-threonine 2.5-50 mM) it was 3400 µM; in experiment [3] (read-out: Km^Thr), 3600 µM; in experiment [4] (read-out: Km^Thr, L481Y, pMON25868, pH 7.5, L-threonine 2.5-50 mM) it was 2000 µM.

In general, IC50 refers to the concentration that gives 50% inhibition. In general, Km refers to the concentration of substrate that gives half-maximal velocity.
